# Data reported in the supplement of paper PMC10307832.
# Assays:
# Experiment in all cases: relative viability (nuclei count vs DMSO), 5 days (fraction); higher = more cells survive
# Ricolinostat + Foretinib = compound: O=C(CCCCCCNC(=O)c1cnc(N(c2ccccc2)c2ccccc2)nc1)NO [Ricolinostat] + COc1cc2c(Oc3ccc(NC(=O)C4(C(=O)Nc5ccc(F)cc5)CC4)cc3F)ccnc2cc1OCCCN1CCOCC1 [Foretinib] (partner 0.25 µM)
# Procedure, shortened: (§1)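 Lung cancer cell lines were seeded in 1536-well plates and dosed by pin tool the next day, with either a single drug or a fixed anchor-drug dose combined with five library-drug doses (not always all listed) spaced in √10 steps. Five days later, one step fixed the cells and stained their nuclei (final 0.05% Triton X-100, 1% formaldehyde, 1 ug/ml Hoechst), and nuclei were counted on 4× images. Relative viability is the nuclei count in treated wells divided by the count in vehicle wells, and each value is the median of duplicate plates.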
# [1] = compound: O=C(CCCCCCNC(=O)c1cnc(N(c2ccccc2)c2ccccc2)nc1)NO [Ricolinostat] + C[C@@H](Oc1cc(-c2cnn(C3CCNCC3)c2)cnc1N)c1c(Cl)ccc(F)c1Cl [Crizotinib] (partner 1 µM)
# Procedure, shortened: as §1
# TGX 221 + Bortezomib = compound: CC1=CN2C(=O)C=C(N=C2C(=C1)C(C)NC3=CC=CC=C3)N4CCOCC4 [TGX 221] + CC(C)C[C@H](NC(=O)[C@H](Cc1ccccc1)NC(=O)c1cnccn1)B(O)O [Bortezomib] (partner 0.002 µM)
# Procedure, shortened: as §1
# Ricolinostat + Lapatinib = compound: O=C(CCCCCCNC(=O)c1cnc(N(c2ccccc2)c2ccccc2)nc1)NO [Ricolinostat] + CS(=O)(=O)CCNCc1ccc(-c2ccc3ncnc(Nc4ccc(OCc5cccc(F)c5)c(Cl)c4)c3c2)o1 [Lapatinib] (partner 2 µM)
# Procedure, shortened: as §1
Cell Line,relative viability (Ricolinostat + Foretinib; first compound 0.253 µM),relative viability (Ricolinostat + Foretinib; first compound 0.8 µM),relative viability (Ricolinostat + Foretinib; first compound 2.53 µM),relative viability ([1]; first compound 0.08 µM),relative viability ([1]; first compound 0.253 µM),relative viability ([1]; first compound 0.8 µM),relative viability ([1]; first compound 2.53 µM),relative viability (TGX 221 + Bortezomib; first compound 0.08 µM),relative viability (TGX 221 + Bortezomib; first compound 0.253 µM),relative viability (TGX 221 + Bortezomib; first compound 0.8 µM),relative viability (TGX 221 + Bortezomib; first compound 2.53 µM),relative viability (TGX 221 + Bortezomib; first compound 8 µM),relative viability (Ricolinostat + Lapatinib; first compound 0.253 µM),relative viability (Ricolinostat + Lapatinib; first compound 0.8 µM),relative viability (Ricolinostat + Lapatinib; first compound 2.53 µM),relative viability (Ricolinostat + Foretinib; first compound 0.08 µM),relative viability (Ricolinostat + Lapatinib; first compound 0.08 µM)
NCI-H441,0.878,0.872,0.921,0.587,0.625,0.615,0.633,0.515,0.772,0.416,0.566,0.389,,,,,
NCI-H1395,0.954,1.07,1.06,,,,,,,,,,1.11,0.881,0.833,,
NCI-H1623,0.9,0.825,0.739,,,,,,,,,,,,,0.795,
NCI-H1793,0.737,0.741,0.876,,,,,,,,,,0.739,0.61,0.895,,
NCI-H1944,0.835,0.689,0.641,1.02,0.95,0.878,0.58,,,,,,0.85,0.819,0.854,0.828,0.638
NCI-H2170,0.973,0.983,1.01,1.16,1.17,1.16,1.23,,,,,,0.277,0.28,0.264,0.915,0.23
NCI-H2342,0.975,1.19,1.07,,,,,,,,,,,,,0.88,
SK-MES-1,0.946,0.928,0.917,0.912,0.96,1.04,0.969,,,,,,0.466,0.439,0.456,0.782,0.403
SW 900,0.883,0.886,0.989,,,,,,,,,,,,,0.733,
